Where a name gives a salt, the structure may show the parent alone.
What was measured:
Format in all cases: cell-based
[1] = molecular target: T1, human P2X3 receptor (Homo sapiens, UniProt P56373); test: Intracellular calcium measurement to assess antagonist activity at human P2X3 receptors (hP2X3 CHO), photina luminescence; set-up: expressed in transfected cells; host or cells: Chinese hamster ovary (CHO) cells; conditions: column 2), CHO cells, agonist α,β-methylene-ATP at EC50
T1 sequence (P56373 1-397): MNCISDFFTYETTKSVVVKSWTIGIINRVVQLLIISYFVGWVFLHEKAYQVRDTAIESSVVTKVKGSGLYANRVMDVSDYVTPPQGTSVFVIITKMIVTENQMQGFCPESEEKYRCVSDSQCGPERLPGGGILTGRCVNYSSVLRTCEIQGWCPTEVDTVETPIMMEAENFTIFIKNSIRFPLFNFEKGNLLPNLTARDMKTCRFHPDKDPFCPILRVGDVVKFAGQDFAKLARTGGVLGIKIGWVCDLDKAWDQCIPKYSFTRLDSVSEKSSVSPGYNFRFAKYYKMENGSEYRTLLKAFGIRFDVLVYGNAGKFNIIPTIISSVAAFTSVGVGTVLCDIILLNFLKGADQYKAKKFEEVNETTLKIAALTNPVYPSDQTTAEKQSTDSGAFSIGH
In short: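 Antagonism read as lowered photina luminescence after agonist stimulation in recombinant hP2X3/photina CHO cells. Cells seeded one day earlier (30 °C) and reconstituted with 5 μg/ml coelenterazine in 2 mM Ca-tyrode buffer for 3 h at 37 °C before measurement.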

[2] = molecular target: T2, human P2X2/3 receptors (Homo sapiens, UniProt P56373+Q9UBL9); test: Intracellular calcium measurement, antagonist activity at human P2X2/3 receptors (hP2X23 1321N1), Fluo8; conditions: for IC50: column 4); 1321N1 cells, human P2X2/3, Fluo8, agonist ATP at EC50; read-out: 4) hP2X2/3 IC50 [nM] (1321N1); for hP2X23/hP2X3* Selectivity (1321N1): ratio of column 4) hP2X2/3 to column 3) hP2X3, 1321N1
T2 construct: expressed in transfected cells; host or cells: human astrocytoma 1321N1 (1312N1 [sic])
T2 sequence (P56373 1-397): T1 sequence (P56373 1-397)
T2 sequence (Q9UBL9 1-471): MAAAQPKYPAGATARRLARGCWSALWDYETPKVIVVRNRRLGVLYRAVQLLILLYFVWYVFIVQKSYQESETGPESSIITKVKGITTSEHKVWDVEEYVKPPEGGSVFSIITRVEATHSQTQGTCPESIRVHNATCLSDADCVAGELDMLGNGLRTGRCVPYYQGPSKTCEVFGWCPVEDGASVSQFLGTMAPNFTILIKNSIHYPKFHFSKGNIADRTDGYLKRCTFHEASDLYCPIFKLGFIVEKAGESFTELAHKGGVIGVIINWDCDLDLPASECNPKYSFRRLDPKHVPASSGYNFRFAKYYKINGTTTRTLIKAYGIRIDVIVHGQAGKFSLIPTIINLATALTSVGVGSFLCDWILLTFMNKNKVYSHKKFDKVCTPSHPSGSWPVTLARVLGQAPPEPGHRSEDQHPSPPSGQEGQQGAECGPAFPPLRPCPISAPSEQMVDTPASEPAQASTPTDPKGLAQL
In short: (§1)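 Antagonism was assessed by decrease of the Fluo8 calcium signal after ATP challenge, with ATP dosed at the EC50 of whichever receptor was tested. Stable 1321N1 astrocytoma lines expressed either human P2X3 or both P2X2 and P2X3, and were dye-loaded 60 min before a 10 min compound incubation.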

[3] = molecular target: T1, human P2X3 receptor; test: Intracellular calcium measurement, antagonist activity at human P2X3 receptors (hP2X3 1321N1), Fluo8; set-up: expressed in transfected cells; host or cells: human astrocytoma 1321N1 (1312N1 [sic]); conditions: column 3); 1321N1 cells, human P2X3, Fluo8, agonist ATP at EC50
In short: as §1

IC50 [1] [nM] | IC50 [2] [nM] | hP2X23/hP2X3* Selectivity (1321N1) [2] | IC50 [3] [nM] | SMILES
24 | 9300 | 132 | 71 | CC(C)N1Cc2c(n(CC(=O)Nc3ccc(F)cn3)c3cc(C4CCN(C(=O)OC(C)(C)C)CC4)nn3c2=O)C1=O [Example 227, tert-butyl 4-[4-{2-[(5-fluoropyridin-2-yl)amino]-2-oxoethyl}-5,8-dioxo-6-(propan-2-yl)-5,6,7,8-tetrahydro-4H-pyrazolo[1,5-a]pyrrolo[3,4-d]pyrimidin-2-yl]piperidine-1-carboxylate]
39 | > 32000 | >1185 | 27 | CC(C)N1Cc2c(n(CC(=O)Nc3ccc(F)cn3)c3cc(C4CCS(=O)(=O)CC4)nn3c2=O)C1=O [Example 229, 2-[2-(1,1-dioxo-1lambda^6-thian-4-yl)-5,8-dioxo-6-(propan-2-yl)-5,6,7,8-tetrahydro-4H-pyrazolo[1,5-a]pyrrolo[3,4-d]pyrimidin-4-yl]-N-(5-fluoropyridin-2-yl)acetamide]
335 | > 32000 | >30 | 1060 | CCc1cc2n(CC(=O)Nc3ccc(F)cn3)c3c(c(=O)n2n1)CN(C[C@H]1CCCN1)C3=O [Example 233, 2-{2-ethyl-5,8-dioxo-6-[(2R)-pyrrolidin-2-ylmethyl]-5,6,7,8-tetrahydro-4H-pyrazolo[1,5-a]pyrrolo[3,4-d]pyrimidin-4-yl}-N-(5-fluoropyridin-2-yl)acetamide hydrochloride (1:1)]
125 | > 32000 | >86 | 370 | CC(C)N1Cc2c(n(CC(=O)Nc3ccc(F)cn3)c3cc(C4CCNCC4)nn3c2=O)C1=O.Cl [Example 234, 2-[5,8-dioxo-2-(piperidin-4-yl)-6-(propan-2-yl)-5,6,7,8-tetrahydro-4H-pyrazolo[1,5-a]pyrrolo[3,4-d]pyrimidin-4-yl]-N-(5-fluoropyridin-2-yl)acetamide hydrochloride (1:1)]
550 | > 32000 | >49 | 650 | CCc1cc2n(CC(=O)Nc3ccc(F)cn3)c3c(c(=O)n2n1)CN(CC1CCNC1)C3=O.Cl (stereo not drawn) [Example 238]
220 | > 32000 | >49 | 650 | CCc1cc2n(CC(=O)Nc3ccc(F)cn3)c3c(c(=O)n2n1)CN(CC1CCCN1)C3=O.Cl (stereo not drawn) [Example 239]
628 | > 32000 | >25 | 1270 | CCc1cc2n(CC(=O)Nc3ccc(F)cn3)c3c(c(=O)n2n1)CN(CC1CCNCC1)C3=O.Cl [Example 240]
330 | 7900 | 28 | 280 | CC(C)N1Cc2c(n(CC(=O)Nc3ccc(F)cn3)c3cc(C4CNC4)nn3c2=O)C1=O.Cl [Example 244]
425 | > 21000 | >61 | 345 | CCc1cc2n(CC(=O)Nc3ccc(F)cn3)c3c(c(=O)n2n1)CN(CCN)C3=O [Example 245, 2-[6-(2-aminoethyl)-2-ethyl-5,8-dioxo-5,6,7,8-tetrahydro-4H-pyrazolo[1,5-a]pyrrolo[3,4-d]pyrimidin-4-yl]-N-(5-fluoropyridin-2-yl)acetamide]
830 | > 32000 | >15 | 2200 | CCc1cc2n(CC(=O)Nc3ccc(F)cn3)c3c(c(=O)n2n1)CN(C[C@@H]1CNCCO1)C3=O [Example 246, 2-{2-ethyl-6-[(2S)-morpholin-2-ylmethyl]-5,8-dioxo-5,6,7,8-tetrahydro-4H-pyrazolo[1,5-a]pyrrolo[3,4-d]pyrimidin-4-yl}-N-(5-fluoropyridin-2-yl)acetamide]
360 | > 32000 | >34 | 937 | CCc1cc2n(CC(=O)Nc3ccc(F)cn3)c3c(c(=O)n2n1)CN(C[C@H]1CNCCO1)C3=O [Example 247, 2-{2-ethyl-6-[(2R)-morpholin-2-ylmethyl]-5,8-dioxo-5,6,7,8-tetrahydro-4H-pyrazolo[1,5-a]pyrrolo[3,4-d]pyrimidin-4-yl}-N-(5-fluoropyridin-2-yl)acetamide]
185 | > 32000 | >43 | 740 | CCc1cc2n(CC(=O)Nc3ccc(F)cn3)c3c(c(=O)n2n1)CN(C[C@@H]1COCCN1)C3=O [Example 248, 2-{2-ethyl-6-[(3R)-morpholin-3-ylmethyl]-5,8-dioxo-5,6,7,8-tetrahydro-4H-pyrazolo[1,5-a]pyrrolo[3,4-d]pyrimidin-4-yl}-N-(5-fluoropyridin-2-yl)acetamide]
162 | 4300 | 36 | 118 | CC(C)N1Cc2c(n(CC(=O)Nc3ccc(F)cn3)c3cc(C4CCN(C5CCC5)C4)nn3c2=O)C1=O (stereo not drawn) [Example 250]
235 | > 32000 | >164 | 195 | CC(C)N1Cc2c(n(CC(=O)Nc3ccc(F)cn3)c3cc(C4CCN(C)CC4)nn3c2=O)C1=O [Example 251]
460 | > 32000 | >91 | 350 | CC(C)N1Cc2c(n(CC(=O)Nc3ccc(F)cn3)c3cc(C4CCN(C5CCC5)CC4)nn3c2=O)C1=O [Example 252]
493 | > 32000 | >40 | 793 | CCc1cc2n(CC(=O)Nc3ccc(F)cn3)c3c(c(=O)n2n1)CN(C1CCN(C)C1)C3=O (stereo not drawn) [Example 253]
400 | 11300 | 26 | 440 | CCc1cc2n(CC(=O)Nc3ccc(F)cn3)c3c(c(=O)n2n1)CN(C[C@H]1CN(C)CCO1)C3=O [Example 255, 2-(2-ethyl-6-{[(2R)-4-methylmorpholin-2-yl]methyl}-5,8-dioxo-5,6,7,8-tetrahydro-4H-pyrazolo[1,5-a]pyrrolo[3,4-d]pyrimidin-4-yl)-N-(5-fluoropyridin-2-yl)acetamide]
42 | 1590 | 30 | 53 | CCc1cc2n(CC(=O)Nc3ccc(F)cn3)c3c(c(=O)n2n1)CN(C[C@H]1CN(C(C)C)CCO1)C3=O [Example 256, 2-(2-ethyl-5,8-dioxo-6-{[(2R)-4-(propan-2-yl)morpholin-2-yl]methyl}-5,6,7,8-tetrahydro-4H-pyrazolo[1,5-a]pyrrolo[3,4-d]pyrimidin-4-yl)-N-(5-fluoropyridin-2-yl)acetamide]
54 | 660 | 12 | 57 | CCc1cc2n(CC(=O)Nc3ccc(F)cn3)c3c(c(=O)n2n1)CN(C[C@H]1CN(C2CCC2)CCO1)C3=O [Example 257]
66 | 1080 | 21 | 52 | CCc1cc2n(CC(=O)Nc3ccc(F)cn3)c3c(c(=O)n2n1)CN(C[C@H]1CN(C2CC2)CCO1)C3=O [Example 258]
33 | 1170 | 16 | 71 | CCc1cc2n(CC(=O)Nc3ccc(F)cn3)c3c(c(=O)n2n1)CN(C[C@H]1CN(CCC(F)(F)F)CCO1)C3=O [Example 259]
